Among the test systems are NCI-H226 lung; MDA-N; UO-31 renal; K-562 leukemia; 786-0 renal; SK-MEL-5 melanoma; HL-60(TB) leukemia; COLO 205 colon; TK-10 renal; OVCAR-8 ovarian; DU-145 prostate; MALME-3M melanoma; UACC-62 melanoma; SK-MEL-2 melanoma; T-47D breast; OVCAR-3 ovarian.
What all share (experiment): growth of human tumour cells (NCI), 48 h

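A five-concentration, 48-hour dose response in 96-well plates underlies each endpoint, interpolated linearly between surrounding concentrations. Definition used: TGI = concentration required for complete inhibition of growth.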 A value given as a limit tells only on which side of the number the result lay.

Consider `O=C1NC(=O)C(C(c2ccc(Cl)cc2)C2C(=O)NC(=O)NC2=O)C(=O)N1`, for which the TGI in the test on NCI-H226 lung, in the test with MDA-N, in the test with UO-31 renal, with K-562 leukemia, in the test on 786-0 renal and in the test on SK-MEL-5 melanoma was > 100 µM throughout. Further, the TGI in the test with HL-60(TB) leukemia, in the test with COLO 205 colon, in the test on TK-10 renal, in the test with OVCAR-8 ovarian, in the test with DU-145 prostate and with MALME-3M melanoma was > 100 µM in each case. The TGI in the test on UACC-62 melanoma, with SK-MEL-2 melanoma, with T-47D breast and in the test on OVCAR-3 ovarian was > 100 µM each time.
For `COc1ccc(N[C@H](CS(=O)c2ccc(C)cc2)C(F)(F)C(F)(F)F)cc1` (some centres undefined), the TGI in the test with NCI-H226 lung, in the test on MDA-N, in the test on UO-31 renal, in the test with K-562 leukemia, in the test on 786-0 renal and with SK-MEL-5 melanoma was > 100 µM throughout. For the same compound, the TGI in the test with HL-60(TB) leukemia, with COLO 205 colon, in the test with TK-10 renal, in the test on OVCAR-8 ovarian, in the test on DU-145 prostate and in the test with MALME-3M melanoma was > 100 µM each time. The TGI with UACC-62 melanoma, with T-47D breast and with OVCAR-3 ovarian was > 100 µM in each case.
Take `COc1ccc(C2=NN(c3ccccc3)C(c3cc4cc(Br)ccc4nc3Cl)C2)cc1` (centres undefined): the TGI in the test on NCI-H226 lung, in the test on MDA-N, with UO-31 renal, in the test on K-562 leukemia, with 786-0 renal and with SK-MEL-5 melanoma was > 25 µM in each case. For the same compound, the TGI in the test with HL-60(TB) leukemia, with COLO 205 colon, in the test on OVCAR-8 ovarian, in the test on DU-145 prostate, with MALME-3M melanoma and in the test with SK-MEL-2 melanoma was > 25 µM throughout. Moreover, the TGI with T-47D breast and in the test with OVCAR-3 ovarian was > 25 µM throughout.
Consider `O=C(Nc1ccccc1C(=O)O)/C(=C/c1ccccc1)NC(=O)c1ccccc1`, for which the TGI in the test with NCI-H226 lung, in the test with MDA-N, in the test on UO-31 renal, with K-562 leukemia, with 786-0 renal and with SK-MEL-5 melanoma was > 100 µM in each case. In addition, the TGI in the test with HL-60(TB) leukemia, in the test on COLO 205 colon, in the test with OVCAR-8 ovarian, in the test with DU-145 prostate, in the test with MALME-3M melanoma and with UACC-62 melanoma was > 100 µM throughout. The TGI with SK-MEL-2 melanoma, in the test with T-47D breast and with OVCAR-3 ovarian was > 100 µM throughout.
As to `COc1ccc(N2C(=O)/C(=C\c3cccc(Oc4ccccc4)c3)S(=O)(=O)C2c2ccccc2)cc1` (centres undefined), the TGI in the test on NCI-H226 lung was > 100 µM; with MDA-N it was 87.6 µM; with UO-31 renal, > 100 µM; in the test with K-562 leukemia it was > 100 µM; with 786-0 renal it was 42.5 µM; in the test with SK-MEL-5 melanoma, 98.7 µM. The TGI in the test on HL-60(TB) leukemia is 58.9 µM; with COLO 205 colon it was > 100 µM; in the test with TK-10 renal, > 100 µM; in the test with DU-145 prostate, > 100 µM; in the test with MALME-3M melanoma it was > 100 µM; in the test on UACC-62 melanoma it was > 100 µM. Besides, the TGI in the test with SK-MEL-2 melanoma, with T-47D breast and with OVCAR-3 ovarian was > 100 µM in each case.
Regarding `CC(=O)O[C@H]1CC[C@@]2(C)C(=CC[C@@H]3[C@@H]2CC[C@]2(C)C(=N/O)/C(=C/c4ccc([N+](=O)[O-])cc4)C[C@@H]32)C1`, the TGI was 67.7 µM in the test on NCI-H226 lung; > 100 µM in the test with MDA-N; 26 µM in the test on UO-31 renal; > 100 µM with K-562 leukemia; 27.3 µM with 786-0 renal; 7.95 µM with SK-MEL-5 melanoma. Further, the TGI in the test with HL-60(TB) leukemia was 66.1 µM; in the test with COLO 205 colon, 10 µM; in the test with TK-10 renal, 55.3 µM; with DU-145 prostate, 31.4 µM; in the test with MALME-3M melanoma, > 100 µM; in the test on UACC-62 melanoma, 20.5 µM. The TGI in the test on SK-MEL-2 melanoma worked out at 17.5 µM; with T-47D breast, 2.46 µM; with OVCAR-3 ovarian, 11.3 µM.
Consider `Cc1cc2c(cc1C)[n+](=O)c(N1CCN(c3ccc([N+](=O)[O-])cc3)CC1)c(C#N)n2[O-]`, for which the TGI is > 100 µM in the test with NCI-H226 lung; > 100 µM in the test on MDA-N; > 100 µM with UO-31 renal; 59.8 µM with 786-0 renal; > 100 µM in the test with SK-MEL-5 melanoma; > 100 µM in the test with HL-60(TB) leukemia. The TGI in the test on COLO 205 colon was > 100 µM; in the test with TK-10 renal, 35.3 µM; with OVCAR-8 ovarian, 49.8 µM; in the test on DU-145 prostate, > 100 µM; in the test on MALME-3M melanoma, > 100 µM; in the test on UACC-62 melanoma, 59.9 µM. Moreover, the figures for the TGI with SK-MEL-2 melanoma and with T-47D breast were 66 µM and 63.7 µM, respectively.
On to `O=C(/C=C(\Nc1ccccc1O)c1ccccc1)C(=O)NC12CC3CC(CC(C3)C1)C2`, for which the TGI with NCI-H226 lung, in the test on MDA-N, in the test on UO-31 renal, in the test with K-562 leukemia, in the test with 786-0 renal and in the test on SK-MEL-5 melanoma was > 10 µM in each case. The TGI with HL-60(TB) leukemia, with COLO 205 colon, with TK-10 renal, in the test with OVCAR-8 ovarian, with DU-145 prostate and with MALME-3M melanoma was > 10 µM in each case. The TGI in the test with SK-MEL-2 melanoma, in the test on T-47D breast and in the test with OVCAR-3 ovarian was > 10 µM each time.
Regarding `COC(=O)/C=C1/N=C(N(C)/N=C/c2ccccc2)NC1=O`, the TGI with MDA-N, in the test with UO-31 renal, in the test on K-562 leukemia, in the test on 786-0 renal, in the test with SK-MEL-5 melanoma and in the test with HL-60(TB) leukemia was > 100 µM in each case. Moreover, the TGI with COLO 205 colon, with TK-10 renal, in the test on OVCAR-8 ovarian, in the test with DU-145 prostate, with MALME-3M melanoma and with UACC-62 melanoma was > 100 µM in each case. In addition, the TGI in the test with SK-MEL-2 melanoma, in the test with T-47D breast and in the test with OVCAR-3 ovarian was > 100 µM each time.

(Values after PubChem BioAssay (NCI).)
